From ChEMBL document CHEMBL1157271, “Maprouneacin, a new daphnane diterpenoid with potent antihyperglycemic activity from Maprounea africana” (1999) come the findings set out here.

Type in all cases: functional
The test system of experiment [1] is Mus musculus. Description: Antihyperglycemic activity in NIDDM db/db mouse model assessed as body weight per mouse at 0.5 mg/kg, qd after 24 hrs.
For experiment [2], the system named is Mus musculus. Kind of experiment: Antihyperglycemic activity in NIDDM db/db mouse model assessed as change in plasma glucose level at 0.5 mg/kg, qd after 3 hrs relative to pre-dosed control.
The test system of experiment [3] is Mus musculus. Description: Antihyperglycemic activity in NIDDM db/db mouse model assessed as change in plasma glucose level at 0.5 mg/kg, qd after 27 hrs relative to pre-dosed control.
For experiment [4], the system named is Mus musculus. Description: Antihyperglycemic activity in NIDDM db/db mouse model assessed as food intake per mouse at 0.5 mg/kg, qd.

In the case of `CCCCC/C=C/C=C/[C@]12O[C@@H]3[C@@H]4[C@@H]5O[C@]5(CO)[C@@H](O)[C@]5(O)C(=O)C(C)=C[C@H]5[C@@]4(O1)[C@H](COC(=O)CC(C)C)[C@H](OC(=O)CC(C)C)[C@]3([C@]1(C)CO1)O2` [MAPROUNEACIN], the Activity in the experiment on Mus musculus [1] is 37.8 g; in the experiment with Mus musculus [2], -254 mg/dL; with Mus musculus [3] it was -246 mg/dL; in the experiment on Mus musculus [4], 0.1 g.
